Consider 15 compounds from article PMC6445159, “Resorcinol-, catechol- and saligenin-based bronchodilating β2-agonists as inhibitors of human cholinesterase activity” (Journal of Enzyme Inhibition and Medicinal Chemistry, 2017).

Assay [1] deals with T1, human AChE (Homo sapiens, UniProt P22303). As to the kind of experiment: biochemical. In kind it is biochemical. The protocol:
(§1) ATCh was used as a substrate for AChE and PTCh as a substrate for BChE. The reaction mixture contained DTNB (final concentration 0.3 mM), buffer, enzyme suspension, inhibitor (0.5–10 mM) and ATCh or PTCh (0.025–1.0 mM). Inhibition of enzymes was determined by measuring the decrease in enzyme activity in the presence of inhibitors.
(§2) The dissociation constant for an enzyme–inhibitor complex K(I) was evaluated from the impact of substrate concentrations [S] on the degree of inhibition applying the Hunter–Downs equation[17]^,[39]: Ki,app=vi/v0-vi·[I]=K(I)+K(I)/K(S)·[S] where Ki,app is an apparent enzyme-reversible inhibitor complex dissociation constant obtained at a given substrate concentration [S] in the presence of inhibitor concentration [I] and calculated from the enzyme activities v0 and vi measured without inhibitor and in the presence of inhibitor concentration [I], respectively. K(I) is the enzyme-reversible inhibitor complex dissociation constant and can stand for a complex formed at the catalytic site or for a complex formed at the peripheral site of the enzyme. K(S) is the enzyme-substrate dissociation constant that could be approximated to the Michaelis constant or to the enzyme-substrate dissociation constant when two molecules of the substrate are bound to the enzyme.

In assay [2] the target is T2, usual BChE (Homo sapiens, UniProt P06276).
T2 construct: Human native serum was used as a source of BChE; from tissue; host or cells: human serum (donor, IMROH Zagreb)
T2 sequence (P06276 29-602): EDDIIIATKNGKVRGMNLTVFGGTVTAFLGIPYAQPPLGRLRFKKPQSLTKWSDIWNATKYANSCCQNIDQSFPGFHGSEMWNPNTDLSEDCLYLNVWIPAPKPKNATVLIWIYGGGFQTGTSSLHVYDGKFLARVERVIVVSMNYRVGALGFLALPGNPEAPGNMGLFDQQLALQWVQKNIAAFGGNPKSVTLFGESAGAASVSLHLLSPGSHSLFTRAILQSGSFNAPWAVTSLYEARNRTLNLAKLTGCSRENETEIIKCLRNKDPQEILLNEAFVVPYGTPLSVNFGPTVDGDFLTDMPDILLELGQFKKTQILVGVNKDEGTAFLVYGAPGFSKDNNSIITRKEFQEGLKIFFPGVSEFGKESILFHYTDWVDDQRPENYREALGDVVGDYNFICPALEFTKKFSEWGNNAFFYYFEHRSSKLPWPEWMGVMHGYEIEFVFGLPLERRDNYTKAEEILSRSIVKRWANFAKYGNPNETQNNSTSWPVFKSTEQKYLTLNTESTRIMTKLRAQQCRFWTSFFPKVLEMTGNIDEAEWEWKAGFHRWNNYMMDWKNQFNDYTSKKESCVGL
As to the kind of experiment: biochemical. Format: biochemical. To be noted: for inhibition potency higher than other compounds of the same group: usual BChE, versus other resorcinol-, catechol- or saligenin-based compounds. The protocol:
as §1, §2

Assay [3] addresses T3, atypical BChE (Homo sapiens, UniProt P06276, D98G).
T3 construct: Human native serum was used as a source of BChE; from tissue; host or cells: human serum
Briefly: Reversible inhibition of atypical BChE (Ellman method, Hunter–Downs evaluation). In kind it is biochemical. The protocol:
as §1, §2

Assay [4] addresses T4, fluoride-resistant BChE (Homo sapiens, UniProt P06276). To be noted: substrate PTCh, K(I) ± SE. The method, then:
as §1, §2

For assay [5], the target named is T2, usual BChE. Particulars: K(I) ± SE, cited from earlier work.
Assay [6] addresses T3, atypical BChE. To be noted: K(I) ± SE; cited from earlier work.
Assay [7] deals with T4, fluoride-resistant BChE. Particulars: K(I) ± SE; cited from earlier work.
In assay [8] the target is T1, human AChE. Particulars: K(I) ± SE; cited from earlier work.
The test system of assay [9] is β-adrenoceptor. Particulars: more potent than (S)-enantiomer; cited from earlier work.
Where [10] appears, read: enantiomers, substrate ATCh, pH 7.4, 25 °C, K(I) ± SE, read-out: K(I).
Setting [11] is: enantiomers, substrate PTCh, pH 7.4, 25 °C, K(I) ± SE, read-out: K(I).
Setting [12] is: racemate, 0.1 M phosphate buffer pH 7.4, 25 °C.

Where two headings read alike, the source gives them in different places.

T4 sequence (P06276 29-602, change not shown): as the sequence (P06276 29-602) above
T3 sequence (P06276 29-602 D98G): as the sequence (P06276 29-602) above, with D70G counted along it
T1 sequence (P22303 32-614): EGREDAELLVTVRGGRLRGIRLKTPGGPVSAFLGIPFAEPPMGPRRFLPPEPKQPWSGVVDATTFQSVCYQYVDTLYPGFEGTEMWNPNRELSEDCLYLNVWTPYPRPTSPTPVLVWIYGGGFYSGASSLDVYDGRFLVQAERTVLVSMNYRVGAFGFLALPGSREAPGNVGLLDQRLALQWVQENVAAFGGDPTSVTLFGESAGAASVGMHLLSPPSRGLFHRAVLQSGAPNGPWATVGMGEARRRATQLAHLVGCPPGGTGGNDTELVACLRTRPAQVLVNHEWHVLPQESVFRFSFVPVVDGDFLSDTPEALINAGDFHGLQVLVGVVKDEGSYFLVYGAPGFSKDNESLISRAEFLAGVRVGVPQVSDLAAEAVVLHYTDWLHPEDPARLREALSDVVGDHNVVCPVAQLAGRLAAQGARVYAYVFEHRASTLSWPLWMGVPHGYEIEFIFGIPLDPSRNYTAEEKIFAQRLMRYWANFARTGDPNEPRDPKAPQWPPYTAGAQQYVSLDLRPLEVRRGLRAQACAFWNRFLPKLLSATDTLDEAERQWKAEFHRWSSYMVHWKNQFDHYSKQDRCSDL

On to (R)-epinephrine, for which the results for the Ki in assay [1] (setting [10]), in assay [2] (setting [11]) and in [3] (setting [11]) were 3200 ± 400 µM, 4700 ± 1800 µM and 12000 ± 2000 µM, respectively.
Take `CNC[C@H](O)c1ccc(O)c(O)c1` [Epinephrine]: the Ki in [1] came out at 6400 ± 1100 µM; in [2], 3700 ± 1200 µM; in assay [3] (read-out: K(I)), 1600 ± 1000 µM; in assay [4] (setting [12]) it was 3800 ± 1500 µM. Moreover, in [2], the “selectivity: inhibition of usual BChE more potent than AChE (ratio of K(I) constants)” value is “lowest selectivity”.
Regarding `OCc1cc(C(O)CNCCCCCCOCCCCc2ccccc2)ccc1O` (centres unmarked) [Salmeterol], the Ki is 30 ± 2 µM in assay [1], 13 ± 1 µM in [2], 86 ± 18 µM in [3] and 9.8 ± 2.3 µM in assay [4] (setting [12]). The “increase in inhibition potency” value in assay [1] (AChE, salmeterol versus salbutamol) came to 67 fold. Further, the “selectivity: inhibition of usual BChE more potent than AChE (ratio of K(I) constants)” value in assay [2] was “two times”. For the same compound, the “inhibition potency higher than other compounds of the same group” value in assay [2] was no more than 5.5 times.
Consider `OCc1cc([C@H](O)CNCCCCCCOCCCCc2ccccc2)ccc1O` [(S)-salmeterol], for which the Ki in [1] (setting [10]) came to 28 ± 6 µM; in assay [2] (setting [11]) it was 15 ± 1 µM; in assay [3] (setting [11]), 67 ± 13 µM; in assay [4] (enantiomers, pH 7.4, 25 °C), 20 ± 3 µM.
`CCC(NC(C)C)C(O)c1ccc(O)c(O)c1` (centres unmarked) [Isoetharine] had a higher inhibition potency in assay [1] (AChE, compared to isoproterenol) of 12 fold. Further, the Ki in assay [1] (read-out: K(I)) was 210 ± 40 µM; in assay [2] (read-out: K(I)), 31 ± 3 µM; in assay [3], 260 ± 50 µM; in assay [4] (setting [12]), 86 ± 4 µM. Further, the “inhibition potency higher than other compounds of the same group” value in assay [2] was no more than 120 times.
Consider `CC(C)(C)NC[C@@H](O)c1ccc(O)c(CO)c1` [(S)-salbutamol], for which the Ki in assay [1] (setting [10]) is 1800 ± 100 µM; in [2] (setting [11]), 310 ± 50 µM; in assay [3] (setting [11]), 1500 ± 200 µM; in assay [4] (enantiomers, pH 7.4, 25 °C) it was 300 ± 40 µM.
With `CC(C)NCC(O)c1cc(O)cc(O)c1` (centres unmarked) [Metaproterenol], the Ki is 550 ± 110 µM in [5], 6100 ± 700 µM in assay [6] and 870 ± 180 µM in assay [7].
As for `OCc1cc([C@@H](O)CNCCCCCCOCCCCc2ccccc2)ccc1O` [(R)-salmeterol], the Ki came out at 33 ± 3 µM in [1] (setting [10]); 15 ± 1 µM in [2] (setting [11]); 71 ± 19 µM in assay [3] (setting [11]); 31 ± 4 µM in assay [4] (enantiomers, pH 7.4, 25 °C).
In the case of `CC(C)(C)NCC(O)c1ccc(O)c(CO)c1` (centres unmarked) [Salbutamol], the Ki in [1] turned out to be 2000 ± 200 µM; in [2], 71 ± 6 µM; in assay [3], 1400 ± 200 µM; in assay [4] (setting [12]) it was 190 ± 20 µM. Besides, the higher inhibition potency result in assay [1] (AChE, compared to terbutaline) was “two times”. Further, the “selectivity: inhibition of usual BChE more potent than AChE (ratio of K(I) constants)” value in assay [2] is recorded as 28 times.
For `CC(C)(C)NC[C@H](O)c1cc(O)cc(O)c1` [(R)-terbutaline], the “stereoselectivity: preference for (R) enantiomer over racemate” value amounted to 2 fold in [1] (AChE, K(I) racemate versus (R) enantiomer) and 3 fold in assay [3] (atypical BChE, K(I) racemate versus (R) enantiomer). Further, the Ki in assay [1] (setting [10]) came out at 2000 ± 300 µM; in assay [2] (setting [11]), 110 ± 30 µM; in assay [3] (setting [11]), 1000 ± 100 µM; in assay [4] (enantiomers, pH 7.4, 25 °C), 220 ± 50 µM.
Consider `CC(C)NC[C@H](O)c1ccc(O)c(O)c1` [(R)-isoproterenol], for which the Ki came to 2000 ± 500 µM in [1] (setting [10]); 810 ± 130 µM in assay [2] (setting [11]); 1400 ± 100 µM in [3] (setting [11]); 1400 ± 200 µM in [4] (enantiomers, pH 7.4, 25 °C).
For `CC(C)NCC(O)c1ccc(O)c(O)c1` (centres unmarked) [Isoproterenol], the “increase in inhibition potency” value in [1] (AChE, compared to epinephrine) was 2 fold. For the same compound, the Ki was 2500 ± 1000 µM in [8], 470 ± 210 µM in assay [5] (read-out: K(I)), 1600 ± 300 µM in assay [6] and 990 ± 120 µM in [7].
Regarding `CC(C)(C)NCC(O)c1cc(O)cc(O)c1` (centres unmarked) [Terbutaline], the Ki was 4800 ± 200 µM in assay [1] (read-out: K(I)), 180 ± 150 µM in assay [5], 3300 ± 700 µM in [6] and 300 ± 320 µM in [7]. Further, the “selectivity: inhibition of usual BChE more potent than AChE (ratio of K(I) constants)” value in assay [2] was found to be 27 times.
`CC(C)(C)NC[C@H](O)c1ccc(O)c(CO)c1` [(R)-salbutamol]: the Ki in assay [1] (setting [10]) was 4000 ± 300 µM; in assay [2] (setting [11]) it was 190 ± 40 µM; in assay [3] (setting [11]), 2300 ± 200 µM; in assay [4] (enantiomers, pH 7.4, 25 °C) it was 300 ± 60 µM. Besides, in assay [9], the “potency as β-adrenoceptor agonist relative to (S)-enantiomer” value is listed as “approximately 80 times”.
Take `CC(Cc1ccc(O)cc1)NCC(O)c1cc(O)cc(O)c1` (centres unmarked) [Fenoterol]: the Ki in assay [1] was 860 ± 50 µM; in assay [2] it was 24 ± 1 µM; in [3], 630 ± 30 µM; in assay [4] (setting [12]) it was 61 ± 17 µM.
